# Columns and labels:
# Format in all cases: in vivo
# [1] = test system: maize inbred PHR03 plants; assay: Glyphosate spray test on plants germinated from T1 mature corn seed; conditions: glyphosate+surfactant at 2× or 4×
# From the text: Immature embryos of maize inbred PHR03 were transformed with the excision vector AGL1/PHP54353, the expression of DsRed was visually confirmed, and T0 plantlets were regenerated as described in Example 5. Before moving the T0 plantlets to soil, the expression of DsRed was again visually confirmed.
# To confirm that the natural desiccation process that occurs during seed maturation would in fact allow for the excision of DsRed and resistance to glyphosate, seeds collected from T0 plants crossed with wild-type PHR03 pollen were germinated in soil. By planting seeds straight to soil without any treatments, excision would be a result of natural processes.
# Three random events were chosen to be tested by this method. Five mature T1 seeds each from the following events, PHP54353 T0 event numbers 6, 7, and 10 were placed in small pots with Metro Mix soil (Sun Gro Horticulture, McFarland, Calif.) with fertilizer and placed in the greenhouse. After plants had germinated and grown to about 12-18 cm (10-12 days after planting), the plants were then sprayed with glyphosate+surfactant at 2× or 4× concentration (1× is equivalent to what is used in the field). Before spraying, all pots were evenly spaced and positioned to ensure that they would receive an even distribution of glyphosate. The distance between the sprayer nozzle and the apical meristem of the plants was approximately 18 inches. Within 10-12 days, it was visibly evident which plants were not affected by the herbicide and which plants had been severely damaged.
# sugarcane plants = assay: Glyphosate spray test on sugarcane T0 plantlets; conditions: 4× glyphosate
# Experimental: T0 plantlets were then moved to soil and spray tested with 4× glyphosate to confirm excision/glyphosate resistance. […] The final confirmation of stable transformation frequency is determined based on molecular analysis such as PCR and Southern blot hybridization.
# tobacco seeds = assay: Germination of tobacco T1 immature seeds on glyphosate medium; conditions: 20-50 μM glyphosate; transgenic and nontransgenic tobacco seeds without desiccation treatment
# Experimental: (§1) T1 immature seeds from transgenic tobacco plants are isolated, sterilized with 15% Clorox+2 drops of Tween 20 and rinsed with autoclaved water 3 times. Sterilized immature seeds are placed on sterile fiber glass filter paper in a Petri dish. The Petri dish is […] and with 20-50 μM glyphosate for selection. One to 2 weeks later, DsRed expression is checked in the emerging shoots. Immature seeds that have been properly desiccated have very weak or no DsRed expression as the gene is excised via the LoxP sites. […] Immature seeds that successfully underwent gene excision by desiccation will have glyphosate resistance and regenerate on medium containing 20-50 μM glyphosate.
# soybean seeds = assay: Germination of soybean T1 immature seeds on glyphosate medium; conditions: 20-50 μM glyphosate; transgenic and nontransgenic soybean seeds without desiccation treatment
# Experimental: as §1, with “immature pods” for “immature seeds”, “transgenic soybean” for “transgenic tobacco”, “are harvested,” for “are isolated,”, “times. Immature” for “times. Sterilized immature”, “are isolated from sterilized pods and” for “are”, “desiccated will” for “desiccated”
smiles,measurement,setting,value
"O=C(O)CNCP(=O)(O)O [glyphosate, N-phosphonomethylglycine]",Glyphosate Spray Test,"[1]; PHP54353 lab event 6 T1 plants, fraction of plants tolerant",2/4 plants tolerant
same,Glyphosate Spray Test,[1]; PHP54353 lab event 7 T1 plants,5/5 plants damaged
same,Glyphosate Spray Test,[1]; PHP54353 lab event 10 T1 plants,4/4 plants damaged
same,Glyphosate Spray Test,"[1]; PHP54353 lab event 13 T1 plants, fraction of plants tolerant",2/5 plants tolerant
same,Glyphosate Spray Test,[1]; Wild-type PHR03 plants,4/4 plants damaged
same,Glyphosate Spray Test,"sugarcane plants; independent T0 events (PHP54561, after excision) from 3 sugarcane cultivars",strong glyphosate resistance
same,Glyphosate Spray Test,sugarcane plants; plants of 3 nontransgenic sugarcane cultivars,completely killed
same,germination,tobacco seeds,completely inhibited
same,germination,soybean seeds,completely inhibited
